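48-hour exposure; five concentrations; linearly interpolated endpoints. GI50 is the concentration that inhibits growth by half.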 Calls of active or inactive are those of the source. Rule as the data show it: active = GI50 up to about 1.1 µM and inactive = higher. Where a SMILES comes first, the peptide text is derived from it. The star is where a group is joined. Cbz = O=C(OCc1ccccc1)*; Boc = CC(C)(C)OC(=O)*; Bn = c1ccc(C*)cc1
Tests used:
Assay in all cases: NCI anticancer screen, dose series, 48 h
EKVX = tested on: EKVX
NCI-H522 = tested on: NCI-H522
NCI-H226 = tested on: NCI-H226
SF-295 = tested on: SF-295
UO-31 = tested on: UO-31
786-0 = tested on: 786-0
HT-29 = tested on: HT-29
LOX IMVI = tested on: LOX IMVI
RPMI-8226 = tested on: RPMI-8226
MOLT-4 = tested on: MOLT-4
SF-268 = tested on: SF-268
HCT-116 = tested on: HCT-116
MDA-N = tested on: MDA-N
SK-MEL-28 = tested on: SK-MEL-28
K562 = tested on: K562
RXF 393 = tested on: RXF 393
IGROV-1 = tested on: IGROV-1
SK-MEL-5 = tested on: SK-MEL-5
U-251 = tested on: U-251
PC-3 = tested on: PC-3

Measured: GI50

N[C@H](Cc1ccc2oc3cc(=O)c4ccccc4c-3nc2c1)C(=O)O
inactive: EKVX > 100 µM | NCI-H522 44.7 µM | NCI-H226 40.8 µM | SF-295 42 µM | UO-31 > 100 µM | 786-0 89.9 µM | HT-29 29.2 µM | LOX IMVI 33.2 µM | RPMI-8226 24.2 µM | MOLT-4 37.8 µM | SF-268 79.6 µM | HCT-116 46.3 µM | MDA-N 15.3 µM | SK-MEL-28 > 100 µM | K562 26.2 µM | RXF 393 70.1 µM | IGROV-1 32.3 µM | SK-MEL-5 20.1 µM | U-251 98.4 µM

COc1ccc(Nc2nc3c([nH]2)c(=O)n(C)c(=O)n3C)cc1
inactive: EKVX > 10 µM | SF-295 > 10 µM | 786-0 > 10 µM | HT-29 > 10 µM | LOX IMVI > 10 µM | RPMI-8226 > 10 µM | MOLT-4 > 10 µM | SF-268 > 10 µM | PC-3 > 10 µM | MDA-N > 10 µM | SK-MEL-28 > 10 µM | K562 > 10 µM | RXF 393 > 10 µM | IGROV-1 > 10 µM | SK-MEL-5 > 10 µM

Cc1ccc(Cc2n[nH]c(=O)n2N2C(=O)c3ccccc3C2=O)cc1
inactive: EKVX > 100 µM | NCI-H226 > 100 µM | SF-295 > 100 µM | UO-31 > 100 µM | 786-0 > 100 µM | HT-29 > 100 µM | LOX IMVI > 100 µM | MOLT-4 > 100 µM | HCT-116 > 100 µM | PC-3 > 100 µM | MDA-N > 100 µM | SK-MEL-28 > 100 µM | K562 > 100 µM | IGROV-1 > 100 µM | SK-MEL-5 > 100 µM | U-251 > 100 µM

Cn1nc(S(N)(=O)=O)s/c1=N/C(N)=S
inactive: EKVX > 100 µM | NCI-H522 > 100 µM | NCI-H226 > 100 µM | SF-295 > 100 µM | UO-31 > 100 µM | 786-0 > 100 µM | HT-29 > 100 µM | LOX IMVI > 100 µM | RPMI-8226 > 100 µM | MOLT-4 > 100 µM | SF-268 > 100 µM | HCT-116 > 100 µM | MDA-N > 100 µM | SK-MEL-28 > 100 µM | K562 > 100 µM | RXF 393 > 100 µM | SK-MEL-5 > 100 µM | U-251 > 100 µM

CN(C)CCCNC(=O)N/N=C/c1ccc(O)cc1
inactive: NCI-H522 > 100 µM | NCI-H226 > 100 µM | SF-295 > 100 µM | UO-31 > 100 µM | 786-0 > 100 µM | HT-29 > 100 µM | MOLT-4 > 100 µM | SF-268 > 100 µM | HCT-116 > 100 µM | PC-3 > 100 µM | MDA-N > 100 µM | SK-MEL-28 > 100 µM | K562 > 100 µM | IGROV-1 > 100 µM | SK-MEL-5 > 100 µM | U-251 > 100 µM

COc1ccc(C(SCCO)(c2ccccc2)c2ccccc2)cc1
inactive: EKVX 12.9 µM | NCI-H522 13.6 µM | NCI-H226 12.7 µM | SF-295 13.4 µM | UO-31 14.9 µM | 786-0 12.5 µM | HT-29 14.5 µM | LOX IMVI 18.1 µM | MOLT-4 15.7 µM | SF-268 14.6 µM | HCT-116 10.9 µM | PC-3 11.9 µM | MDA-N 8.26 µM | SK-MEL-28 17.1 µM | K562 12.9 µM | RXF 393 16.1 µM | SK-MEL-5 10.1 µM | U-251 13.1 µM

CO/C(=N\N=C\c1cc(OC)ccc1OC)c1ccncc1
inactive: NCI-H226 > 10 µM | SF-295 > 10 µM | UO-31 > 10 µM | 786-0 > 10 µM | LOX IMVI > 10 µM | RPMI-8226 > 10 µM | MOLT-4 > 10 µM | SF-268 > 10 µM | HCT-116 > 10 µM | PC-3 > 10 µM | MDA-N > 10 µM | SK-MEL-28 > 10 µM | K562 > 10 µM | RXF 393 > 10 µM | IGROV-1 > 10 µM | SK-MEL-5 > 10 µM | U-251 > 10 µM

COC(=O)CSc1[nH]c2nc(C)nc(Nc3ccccc3)c2c1C#N
inactive: EKVX > 10 µM | SF-295 > 10 µM | 786-0 > 10 µM | HT-29 > 10 µM | LOX IMVI > 10 µM | RPMI-8226 > 10 µM | MOLT-4 > 10 µM | SF-268 > 10 µM | PC-3 > 10 µM | MDA-N > 10 µM | SK-MEL-28 > 10 µM | K562 > 10 µM | RXF 393 > 10 µM | IGROV-1 > 10 µM | SK-MEL-5 > 10 µM

CCN(CC)c1nc(NC2CCCCC2)c2nc(N(CC)CC)nc(NC3CCCCC3)c2n1
inactive: EKVX > 100 µM | NCI-H226 > 100 µM | SF-295 > 100 µM | 786-0 > 100 µM | HT-29 > 100 µM | MOLT-4 > 100 µM | SF-268 > 100 µM | HCT-116 > 100 µM | PC-3 > 100 µM | MDA-N > 100 µM | SK-MEL-28 > 100 µM | K562 > 100 µM | RXF 393 33.3 µM | IGROV-1 > 100 µM | SK-MEL-5 > 100 µM | U-251 > 100 µM

CCOC(=O)C1(Cc2ccccc2)Cc2ccccc2C1=O (centres undefined)
inactive: EKVX 20.7 µM | NCI-H226 19.7 µM | SF-295 37.1 µM | UO-31 14.6 µM | 786-0 32.5 µM | HT-29 23.6 µM | LOX IMVI 24.1 µM | RPMI-8226 20.4 µM | MOLT-4 19.6 µM | SF-268 29.2 µM | HCT-116 27.4 µM | PC-3 17.6 µM | MDA-N 16.4 µM | SK-MEL-28 24.8 µM | K562 24 µM | IGROV-1 35.2 µM | SK-MEL-5 15.1 µM | U-251 34.6 µM

C=CCNC(NCC=C)=C(C(Cl)=C(Cl)Cl)[N+](=O)[O-]
inactive: EKVX 67.3 µM | NCI-H226 > 100 µM | SF-295 > 100 µM | UO-31 37.5 µM | 786-0 34.9 µM | HT-29 54.6 µM | RPMI-8226 49.1 µM | MOLT-4 31.5 µM | SF-268 53.8 µM | HCT-116 30.4 µM | PC-3 51.2 µM | MDA-N 32.5 µM | SK-MEL-28 79.3 µM | K562 16.7 µM | U-251 > 100 µM

CC(C)(C)OC(=O)NC(Cc1ccc(OCc2ccccc2)cc1)C(=O)NC(CCCCNC(=O)OCc1ccccc1)C(=O)O (centres undefined) (Boc-Tyr(Bn)-Lys(Cbz)-OH; configuration not given here)
inactive: EKVX > 100 µM | NCI-H226 96.4 µM | UO-31 73.8 µM | 786-0 54.1 µM | HT-29 62.1 µM | RPMI-8226 32.7 µM | MOLT-4 28 µM | HCT-116 31.3 µM | PC-3 68.1 µM | MDA-N 40.1 µM | SK-MEL-28 17.4 µM | K562 42.8 µM | RXF 393 17.8 µM | IGROV-1 34 µM | SK-MEL-5 40.6 µM | U-251 33.8 µM

Reference: ChEMBL document CHEMBL1201862, “PubChem BioAssay data set” (2004)
